Measurements as given in PubChem BioAssay (NCI).
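Exposure lasted 48 hours, with cells grown in 96-well plates and compounds tested at five concentrations. TGI is the concentration that stops growth completely.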

What was measured:
Test in all cases: growth of human tumour cells (NCI), 48 h
[1] = test system: 786-0 renal
[2] = test system: A498 renal
[3] = test system: ACHN renal
[4] = test system: M14 melanoma
[5] = test system: NCI-H460 lung
[6] = test system: RPMI-8226 leukemia
[7] = test system: SF-295 CNS
[8] = test system: SK-OV-3 ovarian
[9] = test system: U251 CNS
[10] = test system: UO-31 renal

SMILES | TGI [1] [µM] | TGI [2] [µM] | TGI [3] [µM] | TGI [4] [µM] | TGI [5] [µM] | TGI [6] [µM] | TGI [7] [µM] | TGI [8] [µM] | TGI [9] [µM] | TGI [10] [µM]
O=C1C=CC(=C(c2ccc(O)cc2)c2ccc(O)cc2)C=C1 | 26.5 | 32 | 28.7 | 26.4 | 30.5 | 21 | 25.1 | 32.3 | 22.6 | 31.1
Cc1cn(CCCCCCC2=NCCCN2)c(=O)[nH]c1=O | > 100 | > 100 | > 100 | > 100 | > 100 | > 100 | > 100 | > 100 | > 100 | > 100
COC(=O)C1=C(OC(=O)/C=C/c2ccccc2)C(C(=O)OC)[C@@]2(O)[C@@H](C(=O)OC)[C@H](C)C[C@@H]1[C@@H]2C(=O)OC (stereo not given in full) | 50 | 36.7 | > 100 | > 100 | 52.7 | > 100 | 79.9 | 70.2 | 45.6 | > 100
C(/Cc1ccc2c(c1)OCO2)=N\NC1=NCCN1 | > 100 | 70.5 | > 100 | > 100 | > 100 | > 100 | > 100 | > 100 | > 100 | > 100
CCN(CC)C(=S)Nc1ccc(-c2cc3ccc(O)cc3oc2=O)cc1 | > 100 | 96.5 | > 100 | > 100 | > 100 | 95.8 | > 100 | > 100 | 85.1 | > 100
C(=N\Nc1ccc(-c2nc3ccccc3[nH]2)cc1)/c1c(-c2ccc(Cc3ccccc3)cc2)[nH]c2ccccc12 | > 42.6 | 33.3 | > 79.8 | > 54.4 | > 100 | > 32.5 | 27.9 | > 100 | > 51.2 | 49.2
Cc1c(-c2ccccc2)nn2cc(-c3ccccc3)nnc12 | > 100 | > 100 | > 100 | > 100 | 51.2 | > 100 | > 100 | > 100 | 85.7 | > 100
CSc1c(C#N)c(N)nc2c(N=Nc3ccc(Br)cc3)c(N)nn12 | 11.3 | 52.9 | 18.5 | 24.6 | > 49.1 | 54.7 | 25.3 | 38.1 | 16.8 | 28.6
O=c1cc(NNc2cccc(F)c2)[nH]c(=O)[nH]1 | 30.1 | > 100 | > 100 | 33.9 | > 100 | 47.4 | > 100 | > 100 | 31 | 95.8
Fc1ccc(N=C/C=C/Nc2ccc(F)cc2)cc1 | 16.4 | 28.8 | 15 | 11.9 | 24.7 | 52 | 24.2 | 28.8 | 20.6 | 21
C=CC(OC(C)=O)c1ccc(OC(=O)C(C)C)c(OC)c1 (stereo not given) | 4.25 | 31 | 10.4 | 17.3 | > 57.6 | 4.28 | 24.7 | 30.3 | 7.07 | 10.9
CCCCCc1nnc(NS(=O)(=O)c2ccc(NC(=O)OCC(C)C)cc2)s1 | > 100 | 24.6 | > 100 | > 100 | > 100 | 41.4 | > 100 | > 100 | > 100 | > 100
c1ccc(CN[C@]23C4C5CC6C7C5C2C7[C@@](NCc2ccccc2)(C64)N3Cc2ccccc2)cc1 (stereo not given in full) | > 100 | > 100 | > 100 | > 100 | > 100 | > 100 | > 100 | > 100 | > 100 | > 100
C/C(=C\c1ccccc1)C(=O)NCc1ccc(C(=O)NCCc2ccccc2)cc1 | > 100 | > 100 | > 100 | > 100 | > 100 | > 100 | 98.8 | 51.8 | > 100 | > 100
CCCCCCNC(=O)CCC(NC(=O)c1ccc(N(C)Cc2cnc3nc(N)nc(N)c3n2)cc1)C(=O)NCCCCCC (stereo not given) | > 100 | > 100 | > 100 | > 100 | > 100 | > 100 | 30.3 | 37.2 | > 100 | > 100
COC(=O)/C=C\C(C#N)(C#N)N=Cc1ccccc1 | 3.22 | 33.1 | 6.35 | 5.41 | 39.5 | 2.88 | 36.1 | 32.4 | 35.6 | 7.23
